Type in all cases: functional
For one assay, the target named is T1, Hexokinase HKDC1 (Homo sapiens, UniProt Q2TB90).
T1 sequence (Q2TB90 whole entry): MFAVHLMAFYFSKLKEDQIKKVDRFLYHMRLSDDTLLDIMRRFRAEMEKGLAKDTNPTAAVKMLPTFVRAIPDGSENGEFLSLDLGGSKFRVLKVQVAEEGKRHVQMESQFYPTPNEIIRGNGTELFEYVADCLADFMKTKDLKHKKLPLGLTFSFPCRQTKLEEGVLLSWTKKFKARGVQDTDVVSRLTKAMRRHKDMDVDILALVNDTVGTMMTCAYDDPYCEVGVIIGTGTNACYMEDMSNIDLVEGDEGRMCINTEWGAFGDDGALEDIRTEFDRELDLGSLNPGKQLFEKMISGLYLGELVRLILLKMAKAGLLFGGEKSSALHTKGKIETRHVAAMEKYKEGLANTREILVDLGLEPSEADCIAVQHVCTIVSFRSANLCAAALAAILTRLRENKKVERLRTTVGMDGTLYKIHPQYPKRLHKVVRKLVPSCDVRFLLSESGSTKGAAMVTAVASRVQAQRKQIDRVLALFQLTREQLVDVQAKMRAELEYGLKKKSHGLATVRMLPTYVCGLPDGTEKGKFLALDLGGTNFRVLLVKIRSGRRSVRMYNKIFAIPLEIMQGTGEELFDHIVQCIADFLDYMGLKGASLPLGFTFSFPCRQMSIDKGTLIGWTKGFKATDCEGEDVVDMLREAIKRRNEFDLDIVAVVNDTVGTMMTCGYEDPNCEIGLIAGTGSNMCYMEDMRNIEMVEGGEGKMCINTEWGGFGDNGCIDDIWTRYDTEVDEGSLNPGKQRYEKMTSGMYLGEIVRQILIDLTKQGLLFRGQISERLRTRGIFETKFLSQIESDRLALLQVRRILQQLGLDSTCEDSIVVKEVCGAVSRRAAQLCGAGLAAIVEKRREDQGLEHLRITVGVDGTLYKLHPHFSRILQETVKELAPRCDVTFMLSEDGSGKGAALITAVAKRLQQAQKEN
Briefly: SAR analysis of small molecule inhibitors of hexokinase domain containing I (HKDC1). [Related pubchem assays (depositor defined):AID493160, AID493190].

The next assay deals with T2, Hexokinase-1 (Homo sapiens, UniProt P19367).
T2 sequence (P19367 whole entry): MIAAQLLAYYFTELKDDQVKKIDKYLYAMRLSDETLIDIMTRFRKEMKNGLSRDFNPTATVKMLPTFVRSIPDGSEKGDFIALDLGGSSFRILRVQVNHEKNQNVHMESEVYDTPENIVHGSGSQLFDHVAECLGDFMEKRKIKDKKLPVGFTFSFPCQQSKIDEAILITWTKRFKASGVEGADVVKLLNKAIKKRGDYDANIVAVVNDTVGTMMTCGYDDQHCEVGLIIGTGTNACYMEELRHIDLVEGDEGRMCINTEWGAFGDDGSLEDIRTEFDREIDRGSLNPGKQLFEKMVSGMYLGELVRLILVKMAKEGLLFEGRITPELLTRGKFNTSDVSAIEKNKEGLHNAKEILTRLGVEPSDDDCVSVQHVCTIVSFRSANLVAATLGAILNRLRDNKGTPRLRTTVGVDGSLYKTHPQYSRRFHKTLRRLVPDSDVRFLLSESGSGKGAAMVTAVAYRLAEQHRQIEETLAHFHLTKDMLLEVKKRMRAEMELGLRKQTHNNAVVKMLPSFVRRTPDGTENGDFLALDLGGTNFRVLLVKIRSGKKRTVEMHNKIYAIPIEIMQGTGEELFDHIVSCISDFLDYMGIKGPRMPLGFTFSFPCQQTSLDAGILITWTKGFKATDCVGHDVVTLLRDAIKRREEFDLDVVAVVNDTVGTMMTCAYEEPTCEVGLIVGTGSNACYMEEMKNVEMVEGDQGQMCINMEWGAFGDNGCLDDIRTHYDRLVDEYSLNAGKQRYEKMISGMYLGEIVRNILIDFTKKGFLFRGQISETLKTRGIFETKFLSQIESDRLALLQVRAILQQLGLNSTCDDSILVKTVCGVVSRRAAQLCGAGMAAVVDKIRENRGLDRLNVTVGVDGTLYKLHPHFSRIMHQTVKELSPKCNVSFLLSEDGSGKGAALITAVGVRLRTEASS
In words: SAR analysis of small molecule inhibitors of hexokinase domain containing I (HKDC1) in the hexokinase 1 selectivity assay. [Related pubchem assays (depositor defined):AID493160, AID493190].

A further assay deals with T3, Caspase-3 (Homo sapiens, UniProt P42574).
T3 sequence (P42574 whole entry): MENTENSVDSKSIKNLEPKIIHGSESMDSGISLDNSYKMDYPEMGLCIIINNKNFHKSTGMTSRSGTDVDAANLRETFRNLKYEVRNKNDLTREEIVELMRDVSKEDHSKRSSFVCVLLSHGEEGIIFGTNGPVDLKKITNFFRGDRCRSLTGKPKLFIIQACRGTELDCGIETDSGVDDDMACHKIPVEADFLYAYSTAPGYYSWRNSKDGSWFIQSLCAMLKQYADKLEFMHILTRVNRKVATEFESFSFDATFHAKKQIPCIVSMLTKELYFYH

In assay [1] the target is T4, Sentrin-specific protease 6 (Homo sapiens, UniProt Q9GZR1).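 Note: Luminescence-based dose-response confirmatory assay of SENP6 inhibition, following up an ultra-high-throughput screen.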
T4 sequence (Q9GZR1 whole entry): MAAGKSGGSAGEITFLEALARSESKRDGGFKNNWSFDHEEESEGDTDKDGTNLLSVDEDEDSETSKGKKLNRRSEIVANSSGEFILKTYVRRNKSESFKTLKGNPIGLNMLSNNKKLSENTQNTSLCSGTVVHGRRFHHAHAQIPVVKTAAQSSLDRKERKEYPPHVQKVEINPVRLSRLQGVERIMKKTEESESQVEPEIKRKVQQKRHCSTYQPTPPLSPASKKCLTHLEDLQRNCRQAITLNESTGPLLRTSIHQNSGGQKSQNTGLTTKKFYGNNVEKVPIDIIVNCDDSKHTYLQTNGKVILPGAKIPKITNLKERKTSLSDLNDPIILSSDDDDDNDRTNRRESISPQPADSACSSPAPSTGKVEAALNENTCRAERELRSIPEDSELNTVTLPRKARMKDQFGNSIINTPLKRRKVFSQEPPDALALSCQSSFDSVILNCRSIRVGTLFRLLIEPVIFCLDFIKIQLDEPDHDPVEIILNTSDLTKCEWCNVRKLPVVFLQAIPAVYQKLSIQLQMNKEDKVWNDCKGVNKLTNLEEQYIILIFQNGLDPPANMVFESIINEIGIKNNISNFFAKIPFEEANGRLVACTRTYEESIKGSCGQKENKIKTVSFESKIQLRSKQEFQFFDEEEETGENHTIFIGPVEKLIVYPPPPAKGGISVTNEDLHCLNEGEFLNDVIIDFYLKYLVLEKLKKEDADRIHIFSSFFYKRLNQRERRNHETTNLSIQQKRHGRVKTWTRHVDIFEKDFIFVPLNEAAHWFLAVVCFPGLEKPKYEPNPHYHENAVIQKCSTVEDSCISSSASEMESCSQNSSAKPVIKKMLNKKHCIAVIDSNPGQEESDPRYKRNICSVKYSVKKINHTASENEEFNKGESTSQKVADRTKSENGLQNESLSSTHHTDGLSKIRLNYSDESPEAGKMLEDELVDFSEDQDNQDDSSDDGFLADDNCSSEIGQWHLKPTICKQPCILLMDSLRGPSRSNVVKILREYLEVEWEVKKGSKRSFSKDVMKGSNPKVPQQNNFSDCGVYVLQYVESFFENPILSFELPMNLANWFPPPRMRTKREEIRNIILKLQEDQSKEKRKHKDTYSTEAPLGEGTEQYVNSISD

For the next assay, the target named is T5, Coagulation factor XII (Homo sapiens, UniProt P00748).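 Note: activated factor XIIa alpha cleaving a fluorogenic AMC peptide substrate; inhibitor potency from loss of enzyme activity.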
T5 sequence (P00748 whole entry): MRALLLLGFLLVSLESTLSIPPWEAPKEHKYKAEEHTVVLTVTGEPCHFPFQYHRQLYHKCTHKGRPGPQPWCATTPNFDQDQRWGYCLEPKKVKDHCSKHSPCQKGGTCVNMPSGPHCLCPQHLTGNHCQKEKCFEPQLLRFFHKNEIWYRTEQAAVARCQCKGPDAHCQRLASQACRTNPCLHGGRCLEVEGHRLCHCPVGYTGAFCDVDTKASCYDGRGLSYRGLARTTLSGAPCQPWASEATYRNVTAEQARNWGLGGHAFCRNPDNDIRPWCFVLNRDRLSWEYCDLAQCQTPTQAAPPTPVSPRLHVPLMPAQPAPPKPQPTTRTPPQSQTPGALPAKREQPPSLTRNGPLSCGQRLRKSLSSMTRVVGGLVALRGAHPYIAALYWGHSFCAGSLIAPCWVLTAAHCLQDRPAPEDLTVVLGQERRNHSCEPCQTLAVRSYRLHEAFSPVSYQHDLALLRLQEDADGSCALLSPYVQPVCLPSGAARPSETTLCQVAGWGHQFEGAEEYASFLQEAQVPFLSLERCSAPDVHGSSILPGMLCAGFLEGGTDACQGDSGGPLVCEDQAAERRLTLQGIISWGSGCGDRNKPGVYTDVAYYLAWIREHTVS

The target of assay [2] is T6, Sentrin-specific protease 7 (Homo sapiens, UniProt Q9BQF6).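 Note: Luminescence-based dose-response confirmation of ultra-high-throughput screening hits, measuring inhibition of SENP7.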
T6 sequence (Q9BQF6 whole entry): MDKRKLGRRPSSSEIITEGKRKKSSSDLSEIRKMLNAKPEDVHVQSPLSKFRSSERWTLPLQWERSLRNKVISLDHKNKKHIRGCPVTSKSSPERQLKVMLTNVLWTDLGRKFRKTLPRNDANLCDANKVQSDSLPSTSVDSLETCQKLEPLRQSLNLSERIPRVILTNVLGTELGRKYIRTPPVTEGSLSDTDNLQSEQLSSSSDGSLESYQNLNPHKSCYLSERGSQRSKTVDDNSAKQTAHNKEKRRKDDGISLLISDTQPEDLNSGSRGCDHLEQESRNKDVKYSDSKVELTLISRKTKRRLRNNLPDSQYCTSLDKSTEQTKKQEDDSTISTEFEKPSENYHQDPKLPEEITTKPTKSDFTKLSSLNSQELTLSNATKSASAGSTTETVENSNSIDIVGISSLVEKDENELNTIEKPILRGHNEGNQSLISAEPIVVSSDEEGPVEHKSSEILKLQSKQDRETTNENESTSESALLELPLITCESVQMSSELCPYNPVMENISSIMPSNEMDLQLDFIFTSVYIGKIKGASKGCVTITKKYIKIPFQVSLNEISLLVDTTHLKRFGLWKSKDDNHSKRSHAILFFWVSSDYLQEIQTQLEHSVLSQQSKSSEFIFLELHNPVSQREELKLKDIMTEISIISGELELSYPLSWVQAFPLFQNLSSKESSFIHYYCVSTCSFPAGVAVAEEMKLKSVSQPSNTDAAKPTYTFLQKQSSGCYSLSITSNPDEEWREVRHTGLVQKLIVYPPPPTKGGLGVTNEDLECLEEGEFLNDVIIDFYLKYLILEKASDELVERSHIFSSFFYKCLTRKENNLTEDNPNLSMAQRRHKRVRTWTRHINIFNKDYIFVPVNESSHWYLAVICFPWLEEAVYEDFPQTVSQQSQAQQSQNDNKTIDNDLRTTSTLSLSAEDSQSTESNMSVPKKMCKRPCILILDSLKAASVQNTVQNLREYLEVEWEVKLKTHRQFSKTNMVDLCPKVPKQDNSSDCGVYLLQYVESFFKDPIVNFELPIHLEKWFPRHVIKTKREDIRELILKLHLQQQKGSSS

For assay [3], the target named is T7, Sentrin-specific protease 8 (Homo sapiens, UniProt Q96LD8).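 Note: luminescence read-out of SENP8 inhibition, dose-response confirmation following an ultra-high-throughput screen.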
T7 sequence (Q96LD8 whole entry): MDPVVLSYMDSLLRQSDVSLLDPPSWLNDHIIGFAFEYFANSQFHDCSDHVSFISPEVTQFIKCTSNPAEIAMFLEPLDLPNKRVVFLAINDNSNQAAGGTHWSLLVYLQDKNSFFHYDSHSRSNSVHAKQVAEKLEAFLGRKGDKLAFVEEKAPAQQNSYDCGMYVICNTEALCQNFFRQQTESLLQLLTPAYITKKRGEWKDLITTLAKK

The text below walks through data of ChEMBL document CHEMBL1201862, “PubChem BioAssay data set” (2004).

Activity calls are given as the source filed them.

Usually IC50 stands for the midpoint of a concentration-inhibition curve.

For the compound `O=S(=O)(Nc1ccc(O)c2ccccc12)c1ccc(Cl)cc1`, the concentration for half-maximal inhibition (IC50) on Hexokinase HKDC1 was 15.6 µM (active); at Hexokinase-1, > 80 µM (inactive).

In the case of `O=c1c2ccccc2nc(/C=C/c2ccccc2)n1CCc1ccccc1`, the IC50 at Hexokinase HKDC1 and on Hexokinase-1 was > 80 µM (inactive) each time.

Turning to `Cc1ccc(C)c(-c2nc3cc(N)ccc3o2)c1`, the IC50 on Caspase-3 is 27.5 µM (active); in assay [1], 25.2 µM (active); at Coagulation factor XII, > 50 µM (inactive); in assay [2], 9.65 µM (active); in assay [3], 31.1 µM (active).

On to `Cc1ccc(C)c(S(=O)(=O)Nc2cccc3ccccc23)c1`, for which the IC50 on Hexokinase HKDC1 and at Hexokinase-1 was > 80 µM (inactive) throughout.
